Experimental data taken from patent US4340609A, “Amidinourea derivative veterinary compositions for suppression of parasitemia” (William H. Rorer, Inc., priority 1980, dated 1982).
Structures can show the parent of a compound that is named as a salt. Where two headings read alike, the source gives them in different places.

Legend:
plasmodium berghei = assay: suppression of parasitemia in mice infected with plasmodium berghei; type: in vivo; details: for ED50: Plasmodium berghei, sc; for ED50 / Mean % Parasitemia / Mean % Suppression / % died: mice; for FACTOR (HIGHEST SED50 ÷ LOWEST SED50): factor of change, duration of action
Protocol: Five representative amidinoureas were tested in mice infected with plasmodium berghei. The five compounds tested are the following:
Groups of 10 mice each were used in seven doses totaling 70 mice per compound. The protozoal infection was induced by intraperitoneal injection of 5,000,000 parasitized blood cells from a donor. The compound was administered subcutaneously in doses ranging from 0.15 to 10 mg. per kg., suspended on 0.5% methacel solution (doses expressed as base). The compound was repeatedly injected on the day of inoculation (day 1), day 2 and day 3. Blood smears were performed on days 4, 5, 6 and 10.
Untreated control but infected mice developed fulminating parasitemia of as high as 35% on day 10 and deaths occurred from day 12 to 14.

LD50 in mice = details: mouse, in vivo
[1] = 96 h, s.c., levels of parasitemia, 4th day, read-out: SED50 (Suppressant Effective Dose50)
[2] = 120 h, s.c., levels of parasitemia, 5th day, read-out: SED50 (Suppressant Effective Dose50)
[3] = 144 h, s.c., levels of parasitemia, 6th day, read-out: SED50 (Suppressant Effective Dose50)
[4] = 240 h, s.c., levels of parasitemia, 10th day, read-out: SED50 (Suppressant Effective Dose50)
[5] = day 4 to day 10, read-out: HIGHEST SED50
[6] = day 4 to day 10, read-out: LOWEST SED50
[7] = s.c., 1.0 mg/kg on days 1-3, 4th day
[8] = s.c., 1.0 mg/kg on days 1-3, 5th day
[9] = s.c., 1.0 mg/kg on days 1-3, 6th day
[10] = s.c., 1.0 mg/kg on days 1-3, 10th day
[11] = s.c., 1.0 mg/kg on days 1-3, 12th day
[12] = s.c., 1.0 mg/kg on days 1-3, 13th day
[13] = s.c., 1.0 mg/kg on days 1-3, 14th day
[14] = s.c., 2.0 mg/kg on days 1-3, 4th day
[15] = s.c., 2.0 mg/kg on days 1-3, 5th day
[16] = s.c., 2.0 mg/kg on days 1-3, 6th day
[17] = s.c., 2.0 mg/kg on days 1-3, 10th day
[18] = s.c., 2.0 mg/kg on days 1-3, 12th day
[19] = s.c., 2.0 mg/kg on days 1-3, 13th day
[20] = s.c., 2.0 mg/kg on days 1-3, 14th day
[21] = s.c., 10.0 mg/kg on days 1-3, 4th day
[22] = s.c., 10.0 mg/kg on days 1-3, 5th day
[23] = s.c., 10.0 mg/kg on days 1-3, 6th day
[24] = s.c., 10.0 mg/kg on days 1-3, 10th day
[25] = s.c., 10.0 mg/kg on days 1-3, 13th day
[26] = s.c., 10.0 mg/kg on days 1-3, 14th day
[27] = s.c., .15 mg/kg on days 1-3, 4th day
[28] = s.c., .15 mg/kg on days 1-3, 5th day
[29] = s.c., .15 mg/kg on days 1-3, 6th day
[30] = s.c., .15 mg/kg on days 1-3, 10th day
[31] = s.c., .15 mg/kg on days 1-3, 12th day
[32] = s.c., .15 mg/kg on days 1-3, 13th day
[33] = s.c., .15 mg/kg on days 1-3, 14th day
[34] = s.c., .20 mg/kg on days 1-3, 4th day
[35] = s.c., .20 mg/kg on days 1-3, 5th day
[36] = s.c., .20 mg/kg on days 1-3, 6th day
[37] = s.c., .20 mg/kg on days 1-3, 10th day
[38] = s.c., .20 mg/kg on days 1-3, 12th day
[39] = s.c., .20 mg/kg on days 1-3, 13th day
[40] = s.c., .20 mg/kg on days 1-3, 14th day
[41] = s.c., .30 mg/kg on days 1-3, 4th day
[42] = s.c., .30 mg/kg on days 1-3, 5th day
[43] = s.c., .30 mg/kg on days 1-3, 6th day
[44] = s.c., .30 mg/kg on days 1-3, 10th day
[45] = s.c., .30 mg/kg on days 1-3, 12th day
[46] = s.c., .30 mg/kg on days 1-3, 13th day
[47] = s.c., .30 mg/kg on days 1-3, 14th day
[48] = s.c., .50 mg/kg on days 1-3, 4th day
[49] = s.c., .50 mg/kg on days 1-3, 5th day
[50] = s.c., .50 mg/kg on days 1-3, 6th day
[51] = s.c., .50 mg/kg on days 1-3, 10th day
[52] = s.c., .50 mg/kg on days 1-3, 12th day
[53] = s.c., .50 mg/kg on days 1-3, 13th day
[54] = s.c., .50 mg/kg on days 1-3, 14th day

## CNC(=N)NC(=O)Nc1c(C)cccc1Br [Compound B, 1-(2-bromo-6-methylphenyl)-3-methylamidino)urea hydrochloride]
Plasmodium berghei; [1]
  ED50: 1.87 mg/kg
Plasmodium berghei; [2]
  ED50: 1.87 mg/kg
Plasmodium berghei; [3]
  ED50: 1.66 mg/kg
Plasmodium berghei; [4]
  ED50: 1.87 mg/kg
Plasmodium berghei; [5]
  ED50: 1.87 mg/kg
Plasmodium berghei; [6]
  ED50: 1.66 mg/kg
Plasmodium berghei; day 4 to day 10
  FACTOR (HIGHEST SED50 ÷ LOWEST SED50): 1.12
Plasmodium berghei; [7]
  Mean % Parasitemia: 3.75%
  Mean % Suppression: 28.6%
Plasmodium berghei; [8]
  Mean % Parasitemia: 4.30%
  Mean % Suppression: 41.1%
Plasmodium berghei; [9]
  Mean % Parasitemia: 5.10%
  Mean % Suppression: 45.2%
Plasmodium berghei; [10]
  Mean % Parasitemia: 23.2%
  Mean % Suppression: 34.6%
Plasmodium berghei; [11]
  % died: 0%
Plasmodium berghei; [12]
  % died: 20%
Plasmodium berghei; [13]
  % died: 20%
Plasmodium berghei; [14]
  Mean % Parasitemia: 2.50%
  Mean % Suppression: 52.3%
Plasmodium berghei; [15]
  Mean % Parasitemia: 3.40%
  Mean % Suppression: 53.2%
Plasmodium berghei; [16]
  Mean % Parasitemia: 4.50%
  Mean % Suppression: 51.6%
Plasmodium berghei; [17]
  Mean % Parasitemia: 19.8%
  Mean % Suppression: 44.2%
Plasmodium berghei; [18]
  % died: 0%
Plasmodium berghei; [19]
  % died: 0%
Plasmodium berghei; [20]
  % died: 20%
Plasmodium berghei; [21]
  Mean % Parasitemia: 0.25%
  Mean % Suppression: 96.2%
Plasmodium berghei; [22]
  Mean % Parasitemia: 0.50%
  Mean % Suppression: 94.0%
Plasmodium berghei; [23]
  Mean % Parasitemia: 0.05%
  Mean % Suppression: 99.6%
Plasmodium berghei; [24]
  Mean % Parasitemia: 0%
  Mean % Suppression: 100.0%
Plasmodium berghei; s.c., 10.0 mg/kg on days 1-3, 12th day
  % died: 0%
Plasmodium berghei; [25]
  % died: 0%
Plasmodium berghei; [26]
  % died: 0%
Plasmodium berghei; [27]
  Mean % Parasitemia: 5.00%
  Mean % Suppression: 4.8%
Plasmodium berghei; [28]
  Mean % Parasitemia: 7.00%
  Mean % Suppression: 4.1%
Plasmodium berghei; [29]
  Mean % Parasitemia: 7.80%
  Mean % Suppression: 16.1%
Plasmodium berghei; [30]
  Mean % Parasitemia: 34.1%
  Mean % Suppression: 3.9%
Plasmodium berghei; [31]
  % died: 20%
Plasmodium berghei; [32]
  % died: 20%
Plasmodium berghei; [33]
  % died: 20%
Plasmodium berghei; [34]
  Mean % Parasitemia: 5.00%
  Mean % Suppression: 4.8%
Plasmodium berghei; [35]
  Mean % Parasitemia: 6.90%
  Mean % Suppression: 5.5%
Plasmodium berghei; [36]
  Mean % Parasitemia: 7.40%
  Mean % Suppression: 20.4%
Plasmodium berghei; [37]
  Mean % Parasitemia: 30.2%
  Mean % Suppression: 14.9%
Plasmodium berghei; [38]
  % died: 0%
Plasmodium berghei; [39]
  % died: 20%
Plasmodium berghei; [40]
  % died: 40%
Plasmodium berghei; [41]
  Mean % Parasitemia: 4.00%
  Mean % Suppression: 23.8%
Plasmodium berghei; [42]
  Mean % Parasitemia: 6.60%
  Mean % Suppression: 9.6%
Plasmodium berghei; [43]
  Mean % Parasitemia: 6.90%
  Mean % Suppression: 25.8%
Plasmodium berghei; [44]
  Mean % Parasitemia: 29.1%
  Mean % Suppression: 18.0%
Plasmodium berghei; [45]
  % died: 0%
Plasmodium berghei; [46]
  % died: 0%
Plasmodium berghei; [47]
  % died: 40%
Plasmodium berghei; [48]
  Mean % Parasitemia: 4.00%
  Mean % Suppression: 23.8%
Plasmodium berghei; [49]
  Mean % Parasitemia: 5.10%
  Mean % Suppression: 30.1%
Plasmodium berghei; [50]
  Mean % Parasitemia: 5.80%
  Mean % Suppression: 37.6%
Plasmodium berghei; [51]
  Mean % Parasitemia: 26.7%
  Mean % Suppression: 24.8%
Plasmodium berghei; [52]
  % died: 20%
Plasmodium berghei; [53]
  % died: 40%
Plasmodium berghei; [54]
  % died: 60%
LD50 in mice
  LD50: 82 to 135 mg/kg

## CCCN=C(NC)NC(=O)Nc1c(C)cccc1C [Compound D, 1-(2,6-dimethylphenyl)-3-N-methyl-N'-propylamidino)urea hydrochloride]
Plasmodium berghei; [1]
  ED50: 0.9 mg/kg
Plasmodium berghei; [2]
  ED50: 1.91 mg/kg
Plasmodium berghei; [3]
  ED50: 2.09 mg/kg
Plasmodium berghei; [4]
  ED50: 4.47 mg/kg
Plasmodium berghei; [5]
  ED50: 4.47 mg/kg
Plasmodium berghei; [6]
  ED50: 0.9 mg/kg
Plasmodium berghei; day 4 to day 10
  FACTOR (HIGHEST SED50 ÷ LOWEST SED50): 4.97
Plasmodium berghei; [7]
  Mean % Parasitemia: 2.25%
  Mean % Suppression: 57.1%
Plasmodium berghei; [8]
  Mean % Parasitemia: 6.50%
  Mean % Suppression: 11.0%
Plasmodium berghei; [9]
  Mean % Parasitemia: 6.70%
  Mean % Suppression: 28.0%
Plasmodium berghei; [10]
  Mean % Parasitemia: 22.4%
  Mean % Suppression: 36.9%
Plasmodium berghei; [11]
  % died: 20%
Plasmodium berghei; [12]
  % died: 20%
Plasmodium berghei; [13]
  % died: 40%
Plasmodium berghei; [14]
  Mean % Parasitemia: 1.75%
  Mean % Suppression: 66.6%
Plasmodium berghei; [15]
  Mean % Parasitemia: 3.30%
  Mean % Suppression: 54.8%
Plasmodium berghei; [16]
  Mean % Parasitemia: 4.80%
  Mean % Suppression: 48.4%
Plasmodium berghei; [17]
  Mean % Parasitemia: 20.5%
  Mean % Suppression: 42.3%
Plasmodium berghei; [18]
  % died: 20%
Plasmodium berghei; [19]
  % died: 20%
Plasmodium berghei; [20]
  % died: 20%
Plasmodium berghei; [21]
  Mean % Parasitemia: 0.25%
  Mean % Suppression: 96.2%
Plasmodium berghei; [22]
  Mean % Parasitemia: 0%
  Mean % Suppression: 100.0%
Plasmodium berghei; [23]
  Mean % Parasitemia: 0%
  Mean % Suppression: 100.0%
Plasmodium berghei; [24]
  Mean % Parasitemia: 0%
  Mean % Suppression: 100.0%
Plasmodium berghei; [25]
  % died: 0%
Plasmodium berghei; [26]
  % died: 0%
Plasmodium berghei; [27]
  Mean % Parasitemia: 5.00%
  Mean % Suppression: 4.8%
Plasmodium berghei; [28]
  Mean % Parasitemia: 7.40%
  Mean % Suppression: 0%
Plasmodium berghei; [29]
  Mean % Parasitemia: 9.20%
  Mean % Suppression: 1.1%
Plasmodium berghei; [30]
  Mean % Parasitemia: 34.0%
  Mean % Suppression: 4.2%
Plasmodium berghei; [31]
  % died: 0%
Plasmodium berghei; [32]
  % died: 20%
Plasmodium berghei; [33]
  % died: 80%
Plasmodium berghei; [34]
  Mean % Parasitemia: 4.50%
  Mean % Suppression: 14.3%
Plasmodium berghei; [35]
  Mean % Parasitemia: 7.30%
  Mean % Suppression: 0%
Plasmodium berghei; [36]
  Mean % Parasitemia: 9.10%
  Mean % Suppression: 2.2%
Plasmodium berghei; [37]
  Mean % Parasitemia: 30.8%
  Mean % Suppression: 13.2%
Plasmodium berghei; [38]
  % died: 40%
Plasmodium berghei; [39]
  % died: 60%
Plasmodium berghei; [40]
  % died: 100%
Plasmodium berghei; [41]
  Mean % Parasitemia: 4.50%
  Mean % Suppression: 14.3%
Plasmodium berghei; [42]
  Mean % Parasitemia: 7.20%
  Mean % Suppression: 1.4%
Plasmodium berghei; [43]
  Mean % Parasitemia: 8.20%
  Mean % Suppression: 11.8%
Plasmodium berghei; [44]
  Mean % Parasitemia: 26.5%
  Mean % Suppression: 25.4%
Plasmodium berghei; [45]
  % died: 0%
Plasmodium berghei; [46]
  % died: 0%
Plasmodium berghei; [47]
  % died: 60%
Plasmodium berghei; [48]
  Mean % Parasitemia: 3.50%
  Mean % Suppression: 33.3%
Plasmodium berghei; [49]
  Mean % Parasitemia: 7.10%
  Mean % Suppression: 2.7%
Plasmodium berghei; [50]
  Mean % Parasitemia: 7.30%
  Mean % Suppression: 21.5%
Plasmodium berghei; [51]
  Mean % Parasitemia: 24.3%
  Mean % Suppression: 31.5%
Plasmodium berghei; [52]
  % died: 20%
Plasmodium berghei; [53]
  % died: 40%
Plasmodium berghei; [54]
  % died: 80%
LD50 in mice
  LD50: 222 to 366 mg/kg
